From PubChem BioAssay AID330 (DTP/NCI, 2004)
Values joined by “and” are separate entries in the source; they are usually repeats but may differ in a detail not shown here. Identical values can stand only once. Inconclusive results and toxic doses are left out. The calls were made as follows: active = survival T/C of 150% or more; inactive = T/C below 125% in these data. Peptide text beside a SMILES is read from it. * marks the point of attachment. Trt = c1ccc(C(c2ccccc2)(c2ccccc2)*)cc1; Cbz = O=C(OCc1ccccc1)*; OtBu = CC(C)(C)O*

Tested on: P388 leukemia ip, CD2F1 mice, survival T/C
Assay: NCI In Vivo Anticancer Drug Screen. Data for tumor model P388 Leukemia (intraperitoneal) in CD2F1 (CDF1) mice
Settings: endpoint: median survival time, higher = longer survival
Method in brief: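 Mice carrying the transplanted tumor received test compound or vehicle. Survival was recorded in each group, and the value is the treated-group measurement divided by that of the vehicle-treated control group.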

[1] = dose: 50.0 mg/kg/injection, schedule: Q01DX009 (ip), vehicle: saline with Tween-80
[2] = dose: 100.0 mg/kg/injection, schedule: Q01DX009 (ip), vehicle: saline with Tween-80
[3] = dose: 200.0 mg/kg/injection, schedule: Q01DX009 (ip), vehicle: saline with Tween-80
[4] = dose: 50.0 mg/kg/injection, schedule: Q01DX005 (ip), vehicle: saline with Tween-80
[5] = dose: 100.0 mg/kg/injection, schedule: Q01DX005 (ip), vehicle: saline with Tween-80
[6] = dose: 200.0 mg/kg/injection, schedule: Q01DX005 (ip), vehicle: saline with Tween-80
[7] = dose: 50.0 mg/kg/injection, schedule: Q01DX005 (ip), vehicle: Klucel (hydroxypropylcellulose) (HPC)
[8] = dose: 100.0 mg/kg/injection, schedule: Q01DX005 (ip), vehicle: Klucel (hydroxypropylcellulose) (HPC)
[9] = dose: 200.0 mg/kg/injection, schedule: Q01DX005 (ip), vehicle: Klucel (hydroxypropylcellulose) (HPC)
[10] = dose: 25.0 mg/kg/injection, schedule: Q01DX009 (ip), vehicle: Klucel (hydroxypropylcellulose) (HPC)
[11] = dose: 60.0 mg/kg/injection, schedule: Q01DX005 (ip), vehicle: Klucel (hydroxypropylcellulose) (HPC)
[12] = dose: 120.0 mg/kg/injection, schedule: Q01DX005 (ip), vehicle: Klucel (hydroxypropylcellulose) (HPC)
[13] = dose: 240.0 mg/kg/injection, schedule: Q01DX005 (ip), vehicle: Klucel (hydroxypropylcellulose) (HPC)
[14] = dose: 100.0 mg/kg/injection, schedule: Q01DX009 (ip), vehicle: saline
[15] = dose: 200.0 mg/kg/injection, schedule: Q01DX009 (ip), vehicle: saline
[16] = dose: 50.0 mg/kg/injection, schedule: Q01DX009 (ip), vehicle: saline
[17] = dose: 100.0 mg/kg/injection, schedule: Q01DX001 (ip), vehicle: saline with Tween-80
[18] = dose: 200.0 mg/kg/injection, schedule: Q01DX001 (ip), vehicle: saline with Tween-80
[19] = dose: 400.0 mg/kg/injection, schedule: Q01DX001 (ip), vehicle: saline with Tween-80

Measured: T/C

[N-]=[N+]=CC(=O)CCCCC1=CCCC1=O
inactive: dose: 31.75 mg/kg/injection, schedule: Q01DX001 (ip), vehicle: saline with Tween-80 103 % of control | dose: 63.5 mg/kg/injection, schedule: Q01DX001 (ip), vehicle: saline with Tween-80 93 % of control | dose: 127.0 mg/kg/injection, schedule: Q01DX001 (ip), vehicle: saline with Tween-80 94 % of control

CCOC(=O)c1ccc(NC(CCN2CCOCC2)=NC(C)(C)C)cc1
inactive: [1] 111 % of control | [2] 106 % of control | [3] 105 % of control

N#Cc1ccc(NN=NCCO)cc1
inactive: dose: 12.5 mg/kg/injection, schedule: Q01DX009 (ip), vehicle: distilled water + Tween-80 100 % of control | dose: 25.0 mg/kg/injection, schedule: Q01DX009 (ip), vehicle: distilled water + Tween-80 102 % of control | dose: 50.0 mg/kg/injection, schedule: Q01DX009 (ip), vehicle: distilled water + Tween-80 100 % of control | dose: 100.0 mg/kg/injection, schedule: Q01DX009 (ip), vehicle: distilled water + Tween-80 102 % of control

CCOC(=O)Cc1ccnc(C)c1
inactive: [1] 90 % of control | [2] 90 % of control | [3] 100 % of control

COC(=O)c1c2cccc(C)c2nc2c(C)cccc12
inactive: [4] 107 % of control | [5] 107 % of control | [6] 100 % of control

COc1ccc2c(C)cc(N/N=C/c3cccc(C)n3)nc2c1
inactive: [7] 98 % of control and 104 % of control and 93 % of control | [8] 105 % of control and 109 % of control and 110 % of control | [9] 104 % of control and 116 % of control and 124 % of control

NCCOCCN
inactive: dose: 60.0 mg/kg/injection, schedule: Q01DX005 (ip), vehicle: saline 100 % of control | dose: 120.0 mg/kg/injection, schedule: Q01DX005 (ip), vehicle: saline 101 % of control | dose: 240.0 mg/kg/injection, schedule: Q01DX005 (ip), vehicle: saline 95 % of control

CC(=O)c1c(-c2ccc(F)cc2)c(-c2ccc(F)cc2)nn(CCO)c1=O
inactive: [4] 98 % of control | [5] 100 % of control | [6] 98 % of control

CCCCS(=N)(=O)CCC(N)P(=O)(O)O (stereo unspecified)
inactive: dose: 50.0 mg/kg/injection, schedule: Q01DX005 (ip), vehicle: saline 93 % of control | dose: 100.0 mg/kg/injection, schedule: Q01DX005 (ip), vehicle: saline 100 % of control | dose: 200.0 mg/kg/injection, schedule: Q01DX005 (ip), vehicle: saline 95 % of control

Cc1ccccc1NCN1C(=O)S/C(=C2\C(=O)N(C)c3ccc(Br)cc32)C1=O
inactive: [7] 95 % of control | [8] 92 % of control | [9] 90 % of control

Clc1cccc(N(C2=NCCS2)C2=NCCS2)c1
inactive: [10] 107 % of control | dose: 50.0 mg/kg/injection, schedule: Q01DX009 (ip), vehicle: Klucel (hydroxypropylcellulose) (HPC) 104 % of control | dose: 100.0 mg/kg/injection, schedule: Q01DX009 (ip), vehicle: Klucel (hydroxypropylcellulose) (HPC) 107 % of control | dose: 200.0 mg/kg/injection, schedule: Q01DX009 (ip), vehicle: Klucel (hydroxypropylcellulose) (HPC) 104 % of control

CCCCCCCCCCCCCCCC[N+]1([O-])CCOCC1
inactive: dose: 12.5 mg/kg/injection, schedule: Q01DX009 (ip), vehicle: saline with Tween-80 105 % of control | dose: 25.0 mg/kg/injection, schedule: Q01DX009 (ip), vehicle: saline with Tween-80 102 % of control | [1] 102 % of control

CC(=O)C(/C=N\N=C(/C)c1cn[nH]c1C)=C(/C)O
inactive: [11] 96 % of control | [12] 92 % of control | [13] 89 % of control

C=C(CCCC(C)(C)OCOCCOC)[Si](C)(C)C
inactive: [4] 101 % of control | [5] 100 % of control | [6] 102 % of control

CC(CCC(=O)O)(c1ccc(O)cc1)c1ccc(O)cc1
inactive: dose: 100.0 mg/kg/injection, schedule: Q04DX003 (ip), vehicle: other 95 % of control | dose: 200.0 mg/kg/injection, schedule: Q04DX003 (ip), vehicle: other 95 % of control | dose: 400.0 mg/kg/injection, schedule: Q04DX003 (ip), vehicle: other 90 % of control

O=C(c1ccccc1Cl)n1oc2ccccc2c1=O
inactive: [7] 97 % of control | [8] 110 % of control | [9] 106 % of control

CCCCCC(Cl)(CC)CCCCC
inactive: [14] 110 % of control | [15] 108 % of control | dose: 400.0 mg/kg/injection, schedule: Q01DX009 (ip), vehicle: saline 109 % of control

O=C(Cl)CC1CC(=O)OC1=O (stereo unspecified)
inactive: [1] 100 % of control | [2] 95 % of control

Cc1cc(=O)[nH]c2c3sc4ccccc4c(=O)c3c3ccccc3c12
inactive: dose: 12.5 mg/kg/injection, schedule: Q04DX003 (ip), vehicle: Klucel (hydroxypropylcellulose) (HPC) 99 % of control | dose: 25.0 mg/kg/injection, schedule: Q04DX003 (ip), vehicle: Klucel (hydroxypropylcellulose) (HPC) 99 % of control | dose: 50.0 mg/kg/injection, schedule: Q04DX003 (ip), vehicle: Klucel (hydroxypropylcellulose) (HPC) 95 % of control | dose: 100.0 mg/kg/injection, schedule: Q04DX003 (ip), vehicle: Klucel (hydroxypropylcellulose) (HPC) 98 % of control

CN1CCC(O)CC1C(=O)O (stereo unspecified)
inactive: [16] 98 % of control | [14] 104 % of control | [15] 105 % of control

CC(F)C(N)C(=O)O (stereo unspecified)
inactive: dose: 6.25 mg/kg/injection, schedule: Q01DX009 (ip), vehicle: Klucel (hydroxypropylcellulose) (HPC) 108 % of control and 117 % of control | dose: 12.5 mg/kg/injection, schedule: Q01DX009 (ip), vehicle: Klucel (hydroxypropylcellulose) (HPC) 110 % of control and 118 % of control | [10] 116 % of control | [16] 106 % of control | [14] 124 % of control

CCCCCCCCCCCCCCCC(=O)N(CCCCCCCCCN(CCCN(C)C)C(=O)CCCCCCCCCCCCCCC)CCCN(C)C
inactive: dose: 3.13 mg/kg/injection, schedule: Q01DX009 (ip), vehicle: water 108 % of control | dose: 6.25 mg/kg/injection, schedule: Q01DX009 (ip), vehicle: water 109 % of control | dose: 12.5 mg/kg/injection, schedule: Q01DX009 (ip), vehicle: water 105 % of control | dose: 25.0 mg/kg/injection, schedule: Q01DX009 (ip), vehicle: water 93 % of control and 96 % of control | dose: 50.0 mg/kg/injection, schedule: Q01DX009 (ip), vehicle: water 103 % of control

CC(C(=O)O)c1cccc2c(=O)cc(-c3ccccc3)oc12 (stereo unspecified)
inactive: [7] 100 % of control | [8] 87 % of control | [9] 109 % of control

Nc1ncnc2c1nc(N)n2C1OC(CO)C(O)C1O (stereo unspecified)
inactive: dose: 6.0 mg/kg/injection, schedule: Q01DX005 (ip), vehicle: saline 122 % of control | dose: 25.0 mg/kg/injection, schedule: Q01DX005 (ip), vehicle: saline 119 % of control

Nc1cc2c3cccnc3ccc2c2ncccc12
inactive: [17] 94 % of control | [18] 89 % of control | [19] 95 % of control

COC(=O)c1ccc(/C=C/C(=O)c2ccc(C(=O)OC)cc2)cc1
inactive: [17] 106 % of control | [18] 101 % of control | [19] 98 % of control

CC(C)CC(NC(=O)C(CSC(c1ccccc1)(c1ccccc1)c1ccccc1)NC(=O)OCc1ccccc1)C(=O)NC(C(=O)OC(C)(C)C)C(C)C (stereo not drawn) (Cbz-Cys(Trt)-Leu-Val-OtBu; configuration not given here)
inactive: [11] 96 % of control | [12] 100 % of control | [13] 107 % of control
